# Source: patent US20240360178A1, “MACROCYCLIC IMMUNOMODULATORS” (Bristol-Myers Squibb Company, priority 2021, published 2024)
# pIC50: −log10 of the molar value. Positions of bridges follow the written chain, without caps; N, C: chain ends. Non-standard residues stand in square brackets, D forms with d. Residues, ends and D or L forms follow the SMILES beside them. ξ: configuration not given here. Bip = N[C@@H](Cc1ccc(-c2ccccc2)cc1)C(=O)O; NMeF = CN[C@@H](Cc1ccccc1)C(=O)O; ξR = N=C(N)NCCCC(N)C(=O)O; NMeA = CN[C@@H](C)C(=O)O; Sar = CNCC(=O)O
# Molecular target: T1, human PD-1 (Jurkat-PD-1 cells) / PE-labeled human PD-L1-Ig (Homo sapiens, UniProt Q15116)
# T1 construct: expressed in transfected cells; host or cells: Jurkat cell line over-expressing human PD-1
# T1 sequence (Q15116 25-288): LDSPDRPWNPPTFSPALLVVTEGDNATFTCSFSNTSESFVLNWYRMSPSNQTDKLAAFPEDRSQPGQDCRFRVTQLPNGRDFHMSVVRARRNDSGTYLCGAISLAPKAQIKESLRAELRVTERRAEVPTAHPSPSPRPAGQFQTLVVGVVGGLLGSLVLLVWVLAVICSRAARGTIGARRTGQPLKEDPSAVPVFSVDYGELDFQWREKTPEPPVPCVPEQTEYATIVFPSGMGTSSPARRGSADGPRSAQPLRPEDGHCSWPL
# Assay: Jurkat-PD-1 Cell Binding High-Content Screening Assay (CBA); Jurkat hPD1-PDL1 assay
# Settings: Jurkat cell line over-expressing human PD-1; PE-labeled PD-L1-Ig 20 nM final; compound incubated 2 hours at 37° C.; read-out: Jurkat HPD1-PDL1 IC50
# Method in brief: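 Binding of phycoerythrin-conjugated PD-L1-Ig (20 nM final) to PD-1-overexpressing Jurkat cells was read by high-content imaging. Cells in DMEM/10% FCS were exposed to compound for 2 hours at 37° C before labeled ligand was added.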
row,pIC50,Compound
1,6.07,CC(C)C[C@@H]1NC(=O)[C@H](CCCNC(=N)N)NC(=O)[C@H](Cc2ccccc2)N(C)C(=O)[C@H](C)N(C)C(=O)[C@H](CCCNC(=N)N)NC(=O)[C@H](Cc2ccc(-c3ccccc3)cc2)NC(=O)[C@H](C(C)C)NC(=O)[C@H](Cc2c[nH]c3ccccc23)NC(=O)[C@H](CC(=O)O)NC(=O)[C@H](Cc2ccc(O)cc2)NC(=O)[C@H](C)NC(=O)CSC[C@@H](C(=O)NCC(N)=O)NC(=O)[C@H](CO)NC(=O)[C@H](C(C)C)NC1=O [Example 1203] ({CH2CO}-AYDWV[Bip]R[NMeA][NMeF]RLVSCG-NH2; thioether N-14)
2,6.40,CC(C)C[C@@H]1NC(=O)[C@H](Cc2c[nH]c3ccccc23)NC(=O)[C@H](CC(=O)O)NC(=O)[C@H](Cc2ccc(O)cc2)NC(=O)[C@H](Cc2ccccc2)NC(=O)CSC[C@@H](C(=O)NCC(N)=O)NC(=O)[C@H](CO)NC(=O)[C@H](C(C)C)NC(=O)[C@H](CC(C)C)NC(=O)[C@H](CCCNC(=N)N)NC(=O)CN(C)C(=O)[C@H](C)N(C)C(=O)[C@H](C(C)C)NC(=O)[C@H](Cc2ccc(-c3ccccc3)cc2)NC1=O [Example 1204] ({CH2CO}-FYDWL[Bip]V[NMeA][Sar]RLVSCG-NH2; thioether N-14)
3,6.36,CC(C)C[C@@H]1NC(=O)[C@H](Cc2c[nH]c3ccccc23)NC(=O)[C@H](CC(=O)O)NC(=O)[C@H](Cc2ccc(O)cc2)NC(=O)[C@H](Cc2ccccc2)NC(=O)CSC[C@@H](C(=O)NCC(N)=O)NC(=O)[C@H](CO)NC(=O)[C@H](C(C)C)NC(=O)[C@H](CC(C)C)NC(=O)[C@H](CC(N)=O)NC(=O)[C@H](Cc2ccccc2)N(C)C(=O)[C@H](C)N(C)C(=O)[C@H](C(C)C)NC(=O)[C@H](Cc2ccc(-c3ccccc3)cc2)NC1=O [Example 1205] ({CH2CO}-FYDWL[Bip]V[NMeA][NMeF]NLVSCG-NH2; thioether N-14)
4,6.35,CC(C)C[C@@H]1NC(=O)[C@H](CCCNC(=N)N)NC(=O)[C@H](Cc2ccccc2)N(C)C(=O)[C@H](C)N(C)C(=O)[C@H](C(C)C)NC(=O)[C@H](Cc2ccc(-c3ccccc3)cc2)NC(=O)[C@H](C(C)C)NC(=O)[C@H](Cc2c[nH]c3ccccc23)NC(=O)[C@H](CC(=O)O)NC(=O)[C@H](Cc2ccc(O)cc2)NC(=O)[C@H](Cc2ccccc2)NC(=O)CSC[C@@H](C(=O)NCC(N)=O)NC(=O)[C@H](CO)NC(=O)[C@H](C(C)C)NC1=O [Example 1206] ({CH2CO}-FYDWV[Bip]V[NMeA][NMeF]RLVSCG-NH2; thioether N-14)
5,6.49,CC(C)C[C@@H]1NC(=O)[C@H](CC(N)=O)NC(=O)[C@H](Cc2ccccc2)N(C)C(=O)[C@H](C)N(C)C(=O)[C@H](CCCNC(=N)N)NC(=O)[C@H](Cc2ccc(-c3ccccc3)cc2)NC(=O)[C@H](C(C)C)NC(=O)[C@H](Cc2c[nH]c3ccccc23)NC(=O)[C@H](CC(=O)O)NC(=O)[C@H](Cc2ccc(O)cc2)NC(=O)[C@H](Cc2ccccc2)NC(=O)CSC[C@@H](C(=O)NCC(N)=O)NC(=O)[C@H](CO)NC(=O)[C@H](C(C)C)NC1=O [Example 1207] ({CH2CO}-FYDWV[Bip]R[NMeA][NMeF]NLVSCG-NH2; thioether N-14)
6,6.09,CC(C)C[C@@H]1NC(=O)[C@H](CCCNC(=N)N)NC(=O)[C@H](Cc2ccccc2)N(C)C(=O)[C@H](C)N(C)C(=O)[C@H](C)NC(=O)[C@H](Cc2ccc(-c3ccccc3)cc2)NC(=O)[C@H](C(C)C)NC(=O)[C@H](Cc2c[nH]c3ccccc23)NC(=O)[C@H](CC(=O)O)NC(=O)[C@H](Cc2ccc(O)cc2)NC(=O)[C@H](Cc2ccccc2)NC(=O)CSC[C@@H](C(=O)NCC(N)=O)NC(=O)[C@H](CO)NC(=O)[C@H](C(C)C)NC1=O [Example 1208] ({CH2CO}-FYDWV[Bip]A[NMeA][NMeF]RLVSCG-NH2; thioether N-14)
7,6.11,CC(C)C[C@@H]1NC(=O)[C@H](C)NC(=O)[C@H](Cc2ccccc2)N(C)C(=O)[C@H](C)N(C)C(=O)[C@H](CCCNC(=N)N)NC(=O)[C@H](Cc2ccc(-c3ccccc3)cc2)NC(=O)[C@H](C(C)C)NC(=O)[C@H](Cc2c[nH]c3ccccc23)NC(=O)[C@H](CC(=O)O)NC(=O)[C@H](Cc2ccc(O)cc2)NC(=O)[C@H](Cc2ccccc2)NC(=O)CSC[C@@H](C(=O)NCC(N)=O)NC(=O)[C@H](CO)NC(=O)[C@H](C(C)C)NC1=O [Example 1209] ({CH2CO}-FYDWV[Bip]R[NMeA][NMeF]ALVSCG-NH2; thioether N-14)
8,6.22,CC(C)C[C@@H]1NC(=O)[C@H](CCCNC(=N)N)NC(=O)[C@H](Cc2ccccc2)N(C)C(=O)[C@H](C)N(C)C(=O)[C@H](CCCNC(=N)N)NC(=O)[C@H](Cc2ccc(-c3ccccc3)cc2)NC(=O)[C@H](C(C)C)NC(=O)[C@H](Cc2c[nH]c3ccccc23)NC(=O)[C@H](CC(=O)O)NC(=O)[C@H](Cc2ccc(O)cc2)NC(=O)[C@H](CCC(=O)O)NC(=O)CSC[C@@H](C(=O)NCC(N)=O)NC(=O)[C@H](CO)NC(=O)[C@H](C(C)C)NC1=O [Example 1210] ({CH2CO}-EYDWV[Bip]R[NMeA][NMeF]RLVSCG-NH2; thioether N-14)
9,6.19,CC(C)C[C@@H]1NC(=O)[C@H](CCCNC(=N)N)NC(=O)[C@H](Cc2ccccc2)N(C)C(=O)[C@H](C)N(C)C(=O)[C@H](CCCNC(=N)N)NC(=O)[C@H](Cc2ccc(-c3ccccc3)cc2)NC(=O)[C@H](C(C)C)NC(=O)[C@H](Cc2c[nH]c3ccccc23)NC(=O)[C@H](CC(=O)O)NC(=O)[C@H](Cc2ccc(O)cc2)NC(=O)[C@H](CCCCN)NC(=O)CSC[C@@H](C(=O)NCC(N)=O)NC(=O)[C@H](CO)NC(=O)[C@H](C(C)C)NC1=O [Example 1211] ({CH2CO}-KYDWV[Bip]R[NMeA][NMeF]RLVSCG-NH2; thioether N-14)
10,6.21,CC(C)C[C@@H]1NC(=O)[C@H](CCCNC(=N)N)NC(=O)[C@H](Cc2ccccc2)N(C)C(=O)[C@H](C)N(C)C(=O)[C@H](CCCNC(=N)N)NC(=O)[C@H](Cc2ccc(-c3ccccc3)cc2)NC(=O)[C@H](C(C)C)NC(=O)[C@H](Cc2c[nH]c3ccccc23)NC(=O)[C@H](CC(=O)O)NC(=O)[C@H](Cc2ccc(O)cc2)NC(=O)[C@H](CCCNC(=N)N)NC(=O)CSC[C@@H](C(=O)NCC(N)=O)NC(=O)[C@H](CO)NC(=O)[C@H](C(C)C)NC1=O [Example 1212] ({CH2CO}-RYDWV[Bip]R[NMeA][NMeF]RLVSCG-NH2; thioether N-14)
11,6.23,CC(C)C[C@@H]1NC(=O)[C@H](CCCNC(=N)N)NC(=O)[C@H](Cc2ccccc2)N(C)C(=O)[C@H](C)N(C)C(=O)[C@H](CCCNC(=N)N)NC(=O)[C@H](Cc2ccc(-c3ccccc3)cc2)NC(=O)[C@H](C(C)C)NC(=O)[C@H](Cc2c[nH]c3ccccc23)NC(=O)[C@H](CC(=O)O)NC(=O)[C@H](CCCCN)NC(=O)[C@H](Cc2ccccc2)NC(=O)CSC[C@@H](C(=O)NCC(N)=O)NC(=O)[C@H](CO)NC(=O)[C@H](C(C)C)NC1=O [Example 1213] ({CH2CO}-FKDWV[Bip]R[NMeA][NMeF]RLVSCG-NH2; thioether N-14)
12,7.22,CC(C)C[C@@H]1NC(=O)[C@H](CCCNC(=N)N)NC(=O)[C@H](Cc2ccccc2)N(C)C(=O)[C@H](C)N(C)C(=O)[C@H](CCC(=O)O)NC(=O)[C@H](Cc2ccc(-c3ccccc3)cc2)NC(=O)[C@H](C(C)C)NC(=O)[C@H](Cc2c[nH]c3ccccc23)NC(=O)[C@H](CC(=O)O)NC(=O)[C@H](Cc2ccc(O)cc2)NC(=O)[C@H](Cc2ccccc2)NC(=O)CSC[C@@H](C(=O)NCC(N)=O)NC(=O)[C@H](CO)NC(=O)[C@H](C(C)C)NC1=O [Example 1214] ({CH2CO}-FYDWV[Bip]E[NMeA][NMeF]RLVSCG-NH2; thioether N-14)
13,7.05,CC(C)C[C@@H]1NC(=O)C(CCCNC(=N)N)NC(=O)[C@H](Cc2ccccc2)N(C)C(=O)[C@H](CCCCN)NC(=O)[C@H](CCCNC(=N)N)NC(=O)[C@H](Cc2ccc(-c3ccccc3)cc2)NC(=O)[C@H](C(C)C)NC(=O)[C@H](Cc2c[nH]c3ccccc23)NC(=O)[C@H](CC(=O)O)NC(=O)[C@H](Cc2ccc(O)cc2)NC(=O)[C@H](Cc2ccccc2)NC(=O)CSC[C@@H](C(=O)NCC(N)=O)NC(=O)[C@H](CO)NC(=O)[C@H](C(C)C)NC1=O (stereo partly shown) [Example 1216] ({CH2CO}-FYDWV[Bip]RK[NMeF][ξR]LVSCG-NH2; thioether N-14)
14,6.64,CC(C)C[C@@H]1NC(=O)C(CCCNC(=N)N)NC(=O)[C@H](Cc2ccccc2)N(C)C(=O)[C@H](C)N(C)C(=O)[C@H](CCCNC(=N)N)NC(=O)[C@H](Cc2ccc(-c3ccccc3)cc2)NC(=O)[C@H](C(C)C)NC(=O)[C@H](Cc2c[nH]c3ccccc23)NC(=O)[C@H](CC(=O)O)NC(=O)[C@H](Cc2ccc(O)cc2)NC(=O)[C@H](Cc2ccccc2)NC(=O)CSC[C@@H](C(=O)NCC(N)=O)NC(=O)[C@H](CO)NC(=O)[C@H](CCC(=O)O)NC1=O (stereo partly shown) [Example 1218] ({CH2CO}-FYDWV[Bip]R[NMeA][NMeF][ξR]LESCG-NH2; thioether N-14)
15,6.21,CC(C)C[C@@H]1NC(=O)C(CCCNC(=N)N)NC(=O)[C@H](Cc2ccccc2)N(C)C(=O)[C@H](C)N(C)C(=O)[C@H](CCCNC(=N)N)NC(=O)[C@H](Cc2ccc(-c3ccccc3)cc2)NC(=O)[C@H](C(C)C)NC(=O)[C@H](Cc2c[nH]c3ccccc23)NC(=O)[C@H](CC(=O)O)NC(=O)[C@H](Cc2ccc(O)cc2)NC(=O)[C@H](Cc2ccccc2)NC(=O)CSC[C@@H](C(=O)NCC(N)=O)NC(=O)[C@H](CCC(=O)O)NC(=O)[C@H](C(C)C)NC1=O (stereo partly shown) [Example 1219] ({CH2CO}-FYDWV[Bip]R[NMeA][NMeF][ξR]LVECG-NH2; thioether N-14)
16,6.14,CC(C)C[C@@H]1NC(=O)C(CCCNC(=N)N)NC(=O)[C@H](Cc2ccccc2)N(C)C(=O)[C@H](C)N(C)C(=O)[C@H](CCCNC(=N)N)NC(=O)[C@H](Cc2ccc(-c3ccccc3)cc2)NC(=O)[C@H](C(C)C)NC(=O)[C@H](Cc2c[nH]c3ccccc23)NC(=O)[C@H](CC(=O)O)NC(=O)[C@H](Cc2ccc(O)cc2)NC(=O)[C@H](Cc2ccccc2)NC(=O)CSC[C@@H](C(=O)NCC(N)=O)NC(=O)[C@H](CCCNC(=N)N)NC(=O)[C@H](C(C)C)NC1=O (stereo partly shown) [Example 1220] ({CH2CO}-FYDWV[Bip]R[NMeA][NMeF][ξR]LVRCG-NH2; thioether N-14)
